Six compounds from DBAASP can be followed below.

In brackets after ≈: the same amount, converted by molar mass. Bounds are passed on as bounds.

As a reminder, the MIC is the lowest concentration found to suppress growth.

Test systems include Candida krusei ATCC 6258; Acinetobacter baumannii; Candida albicans; Candida glabrata; Candida tropicalis; Staphylococcus aureus; Methylobacterium sp.; Xanthomonas citri; Escherichia coli C600; Escherichia coli ML-35p; Klebsiella pneumoniae; Pseudomonas aeruginosa.
Experiment in all cases: ≥ marks a high value that may be exact or a test limit, other limits are often not marked, values filed in µg/mL are converted to µM
For assay [1], the system named is Candida albicans ATCC 90028.
For assay [2], the system named is Candida glabrata ATCC 90030.
Assay [3] concerns Enterobacter cloacae ATCC 13047.
Assay [4] deals with Enterococcus faecalis ATCC 4028.
Assay [5] has as its system Escherichia coli ATCC 25922.
The test system of assay [6] is Pseudomonas aeruginosa ATCC 27853.
In assay [7] the test system is Staphylococcus aureus ATCC 29213.
The subject of assay [8] is Staphylococcus epidermidis ATCC 12228.
In assay [9] the test system is Pseudomonas aeruginosa ATCC 10662.
Assay [10] deals with Staphylococcus aureus ATCC 25923.
Assay [11] deals with Acinetobacter baumannii B2367-12.
The subject of assay [12] is Enterobacter cloacae B2366-12.
Assay [13] concerns Enterococcus faecium ATCC 51559.
In assay [14] the test system is Klebsiella pneumoniae ATCC 13883.
Assay [15] relates to Pseudomonas aeruginosa PAO1.
Assay [16] has as its system Staphylococcus aureus USA 300.
The test system of assay [17] is Agrobacterium tumefaciens GV3101.
Assay [18] relates to Sinorhizobium meliloti USDA 1002.
The subject of assay [19] is Bacillus megaterium VKM41.
The subject of assay [20] is Bacillus subtilis VKM B-886.
The subject of assay [21] is Escherichia coli BL21(DE3).
In assay [22] the test system is Micrococcus luteus VKM B-1314.
The subject of assay [23] is Staphylococcus aureus 209P.
The subject of assay [24] is Acinetobacter baumannii ATCC 19606.
Assay [25] concerns Bacillus subtilis ATCC 6051.
The subject of assay [26] is Cryptococcus neoformans ATCC 208821.
The test system of assay [27] is Klebsiella pneumoniae ATCC 700603.
In assay [28] the test system is Klebsiella pneumoniae ATCC BAA-2146.
Assay [29] has as its system Staphylococcus aureus ATCC 43300.

In the case of `CC[C@H](C)[C@H](NC(=O)[C@H](CC(C)C)NC(=O)[C@H](CCCCN)NC(=O)[C@H](CCCCN)NC(=O)[C@@H](NC(=O)[C@H](CC(C)C)NC(=O)[C@H](CO)NC(=O)[C@@H]1CCCN1C(=O)[C@@H](NC(=O)[C@H](CC(C)C)NC(=O)[C@H](CO)NC(=O)[C@H](Cc1ccccc1)NC(=O)[C@@H](N)Cc1ccccc1)[C@@H](C)CC)C(C)C)C(=O)N[C@@H](CCCCN)C(=O)N[C@@H](C)C(=O)N[C@@H](Cc1ccccc1)C(=O)N[C@@H](CCCCN)C(N)=O` [FFSLIPSLVKKLIKAFK], the MIC in assay [1] was found to be 9.4 µM (≈ 18.6 µg/mL); in assay [2] it was 9.4 µM (≈ 18.6 µg/mL); against Candida krusei ATCC 6258, 9.4 µM (≈ 18.6 µg/mL); in [3], 18.8 µM (≈ 37.2 µg/mL); in [4] it was 4.7 µM (≈ 9.3 µg/mL); in assay [5] it was 2.3 µM (≈ 4.55 µg/mL). Also, the MIC in [6] stood at 4.7 µM (≈ 9.3 µg/mL); in [7] it was 1.2 µM (≈ 2.37 µg/mL); in assay [8] it was 2.3 µM (≈ 4.55 µg/mL).

Regarding `CC[C@H](C)[C@H](NC(=O)[C@H](C)NC(=O)[C@H](CCCCN)NC(=O)[C@H](C)NC(=O)CNC(=O)[C@H](CCCN=C(N)N)NC(=O)[C@H](CC(C)C)NC(=O)[C@H](CC(C)C)NC(=O)[C@H](CO)NC(=O)[C@H](CCCN=C(N)N)NC(=O)[C@H](CC(C)C)NC(=O)[C@@H](N)Cc1ccccc1)C(=O)N[C@@H](Cc1ccc(O)cc1)C(=O)N[C@@H](CCCN=C(N)N)C(=O)NCC(=O)N[C@@H](C)C(=O)N[C@@H](CCCN=C(N)N)C(=O)N[C@@H](C)C(=O)NCC(=O)N[C@@H](Cc1c[nH]c2ccccc12)C(=O)N[C@@H](CCCN=C(N)N)C(=O)NCC(N)=O` [FLRSLLRGAKAIYRGARAGWRG], the minimal inhibitory concentration (MIC) is 7.27 µM (≈ 18 µg/mL) against Acinetobacter baumannii; 2.67 µM (≈ 6.62 µg/mL) in the assay on Candida albicans; no less than 60.6 µM against Candida glabrata; 2.67 µM (≈ 6.62 µg/mL) against Candida tropicalis; 15.1 µM (≈ 37.5 µg/mL) in assay [9]; 1.89 µM (≈ 4.68 µg/mL) in [10]. The compound further gave an MIC against Staphylococcus aureus of 1.89 µM (≈ 4.68 µg/mL).

For `CC(C)C[C@H](NC(=O)[C@H](CC(N)=O)NC(=O)[C@H](CCCN=C(N)N)NC(=O)[C@@H](CC(C)C)NC(=O)[C@H](Cc1ccccc1)NC(=O)[C@H](CC(=O)O)NC(=O)[C@H](CCCCN)NC(=O)[C@@H](CC(C)C)NC(=O)[C@H](CCCN=C(N)N)NC(=O)[C@H](CCC(N)=O)NC(=O)[C@@H](NC(=O)[C@@H](CC(C)C)NC(=O)[C@H](CCCN=C(N)N)NC(=O)[C@H](CCCCN)NC(=O)[C@H](Cc1ccccc1)NC(=O)CN)C(C)C)C(=O)N[C@H](C(N)=O)C(C)C` [GFKRLVQRLKDFLRNLV], the MIC in assay [11] is 8.8 µM (≈ 18.5 µg/mL); in [12], 25 µM (≈ 52.5 µg/mL); in assay [13] it was no less than 100 µM; in assay [14], no less than 100 µM; in [15] it was 100 µM (≈ 210 µg/mL); in assay [16] it was no less than 100 µM.

With `CC[C@H](C)[C@H](N)C(=O)N[C@@H](CCC(=O)O)C(=O)N[C@H](C(=O)N[C@@H](Cc1ccccc1)C(=O)N[C@@H](CC(C)C)C(=O)N[C@@H](CCCCN)C(=O)N[C@@H](CCC(N)=O)C(=O)N[C@@H](CC(C)C)C(=O)N[C@@H](CCCN=C(N)N)C(=O)N[C@@H](CO)C(=O)N[C@@H](C)C(=O)N[C@@H](C)C(=O)N[C@@H](CC(N)=O)C(=O)N[C@@H](CCCCN)C(=O)N[C@H](C(=O)N[C@H](C(=O)NCC(=O)N[C@@H](CC(C)C)C(=O)O)C(C)C)[C@@H](C)CC)[C@@H](C)O` [IETFLKQLRSAANKIVGL], the MIC in [17] was no less than 64 µM; against Methylobacterium sp. it was no less than 64 µM; in assay [18], no less than 64 µM; against Xanthomonas citri, no less than 32 µM.

`CC[C@H](C)[C@H](N)C(=O)N[C@@H](CCCCN)C(=O)N[C@@H](CC(N)=O)C(=O)N[C@@H](C)C(=O)N[C@@H](CCCCN)C(=O)N[C@H](C(=O)N[C@H]1CSSC[C@@H](C(=O)N[C@H](C(=O)N[C@@H](CO)C(=O)N[C@@H](Cc2cnc[nH]2)C(=O)N[C@@H](CCCCN)C(=O)O)C(C)C)NC(=O)[C@H](C(C)C)NC(=O)[C@H](C)NC(=O)[C@H](Cc2ccc(O)cc2)NC(=O)[C@H](C(C)C)NC1=O)C(C)C` [IKNAKVCVYAVCVSHK]: the minimal inhibitory concentration (MIC) against Acinetobacter baumannii is no less than 64 µM; in [19], 16 µM (≈ 28.2 µg/mL); in [20], 16 µM (≈ 28.2 µg/mL); in assay [21] it was no less than 64 µM; in the assay on Escherichia coli C600 it was no less than 64 µM; in the assay with Escherichia coli ML-35p, no less than 64 µM. The MIC in assay [22] is 16 µM (≈ 28.2 µg/mL); in assay [15], greater than 128 µM; in [23] it was 16 µM (≈ 28.2 µg/mL); in assay [7] it was greater than 128 µM.

As for `CC[C@H](C)[C@@H]1NC(=O)CNC(=O)[C@H](CCCN=C(N)N)NC(=O)[C@H](Cc2ccc(O)cc2)NC(=O)[C@@H](NC(=O)[C@@H](NC(=O)[C@H](CCCN=C(N)N)NC(=O)[C@H](Cc2ccccc2)NC(=O)[C@H](CO)NC(=O)[C@H](Cc2c[nH]c3ccccc23)NC(=O)[C@@H](N)CCCCN)C(C)C)CSSC[C@@H](C(=O)N[C@@H](Cc2ccc(O)cc2)C(=O)N[C@@H](CCCN=C(N)N)C(=O)N[C@@H](CCCN=C(N)N)C(=O)N[C@@H](C)C(=O)N[C@@H](CCCN=C(N)N)C(=O)O)NC1=O` [KWSFRVCYRGICYRRAR], the MIC in [24] stood at 0.113 µM (≈ 0.25 µg/mL); with Acinetobacter baumannii, 0.113 µM (≈ 0.25 µg/mL); in assay [25], 0.0563 µM (≈ 0.125 µg/mL); in assay [1] it was 1.8 µM (≈ 4 µg/mL); in [26], 0.113 µM (≈ 0.25 µg/mL); in assay [5], 0.113 µM (≈ 0.25 µg/mL). The minimum inhibitory concentration (MIC) in assay [14] turned out to be 0.45 µM (≈ 0.999 µg/mL); in assay [27] it was 0.901 µM (≈ 2 µg/mL); in assay [28], 0.45 µM (≈ 0.999 µg/mL); against Klebsiella pneumoniae it was 7.21 µM (≈ 16 µg/mL); in assay [6], 0.45 µM (≈ 0.999 µg/mL); in the assay on Pseudomonas aeruginosa, 1.8 µM (≈ 4 µg/mL). The compound also yielded an MIC in assay [29] of 1.8 µM (≈ 4 µg/mL).
